Measurements: publication PMC12801976, “Enzyme-Powered CO2 Utilization: A Bifunctional Immobilized Biocatalyst for Intensified CCU of Industrial Feedstocks to High-Value Chemicals” (ACS Sustainable Chemistry & Engineering, 2025)

Biological target: T1, glycerol dehydrogenase (GlyDH)
T1 construct: His-tagged, produced and purified in house (details only in SI); multimeric zinc metalloenzyme; free enzyme
Experiment: NADH formation at […] nm, DHA dose series
Assay type: biochemical
Conditions: free enzyme; product inhibition; standard assay 100 mM glycerol, 2.5 mM NAD+, 100 mM phosphate pH 7.0, 30 °C

O=C(CO)CO [DHA, dihydroxyacetone]
IC50: 330 µM
